Among the test systems are NCI-H226 lung; HOP-62 NSCLC; HOP-92 NSCLC; A549 NSCLC; KM12 colon; COLO 205 colon; SK-OV-3 ovarian; PC-3 prostate; HCT-116 colon; OVCAR-8 ovarian.
Experiment in all cases: growth of human tumour cells (NCI), 48 h

The source of these data is PubChem BioAssay (NCI).

SMILES strings stand for the structures.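 Method: 48-hour compound exposure of cells in 96-well plates, five concentrations, linear interpolation of endpoints. Abbreviation: GI50, concentration required for 50% inhibition of growth. TGI is the concentration that stops growth completely.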

With `CN(CCO)c1ccc(N2Cc3ccccc3OC3=C2C(=O)c2c(O)ccc(O)c2C3=O)cn1`, the GI50 was 854 nM with NCI-H226 lung; 508 nM with HOP-62 NSCLC; 223 nM with HOP-92 NSCLC; 2080 nM in the assay on A549 NSCLC; 387 nM with KM12 colon; 133 nM in the assay on COLO 205 colon. Moreover, the GI50 in the assay on SK-OV-3 ovarian is 2240 nM; in the assay with PC-3 prostate, 296 nM; in the assay with HCT-116 colon, 46.7 nM; with OVCAR-8 ovarian, 307 nM. For the same compound, the TGI in the assay on NCI-H226 lung was determined as 2950 nM; with HOP-62 NSCLC it was 1790 nM; with HOP-92 NSCLC, 505 nM; in the assay on A549 NSCLC, 4900 nM; in the assay with KM12 colon it was 1630 nM; with COLO 205 colon, 302 nM. Besides, the TGI with SK-OV-3 ovarian was determined as 8650 nM; with PC-3 prostate it was 888 nM; with HCT-116 colon, 223 nM; with OVCAR-8 ovarian it was 3490 nM.
In the case of `O=C1NC(=O)/C(=C\c2ccccc2)C2=C1CCCC2`, the GI50 is 10800 nM in the assay on NCI-H226 lung; 7310 nM in the assay with HOP-62 NSCLC; 15900 nM in the assay on HOP-92 NSCLC; 19700 nM with A549 NSCLC; 9210 nM in the assay on KM12 colon; 3860 nM with COLO 205 colon. Further, the GI50 in the assay on SK-OV-3 ovarian is 14600 nM; with PC-3 prostate, 6360 nM; in the assay with HCT-116 colon it was 3380 nM; in the assay on OVCAR-8 ovarian, 9920 nM. Also, the TGI with NCI-H226 lung is 23000 nM; in the assay with HOP-62 NSCLC, 25800 nM; with HOP-92 NSCLC, 38200 nM; in the assay on A549 NSCLC, 51600 nM; in the assay with KM12 colon, 22000 nM; in the assay on COLO 205 colon it was 14600 nM. Also, the TGI is 27800 nM with SK-OV-3 ovarian, 35500 nM in the assay on PC-3 prostate, 11100 nM in the assay on HCT-116 colon and 41100 nM in the assay on OVCAR-8 ovarian.
Turning to `COc1ccc(-c2ccc(-c3ccc(C(=N)N)s3)s2)cc1`, the GI50 in the assay with NCI-H226 lung was 2060 nM; with HOP-62 NSCLC it was 214 nM; in the assay with HOP-92 NSCLC, 1160 nM; in the assay on A549 NSCLC, 195 nM; in the assay on KM12 colon it was 190 nM; with COLO 205 colon it was 309 nM. Moreover, the GI50 is 2140 nM in the assay on SK-OV-3 ovarian, 167 nM in the assay on PC-3 prostate, 179 nM in the assay with HCT-116 colon and 219 nM with OVCAR-8 ovarian. The TGI with NCI-H226 lung was found to be 5150 nM; with HOP-62 NSCLC it was 446 nM; in the assay on HOP-92 NSCLC it was 2710 nM; in the assay with A549 NSCLC, 393 nM; in the assay with KM12 colon, 357 nM; in the assay on COLO 205 colon, 916 nM. For the same compound, the TGI with SK-OV-3 ovarian worked out at 4300 nM; in the assay with PC-3 prostate, 318 nM; in the assay on HCT-116 colon, 342 nM; in the assay with OVCAR-8 ovarian, 500 nM.
